In PubChem BioAssay AID248 (DTP/NCI, 2004):
Values joined by “and” are separate entries in the source; they are usually repeats but may differ in a detail not shown here. Equal entries are not always repeated. Inconclusive results and toxic doses are left out.

Test system: L1210 leukemia ip in BDF1 mice, survival T/C
Experiment: NCI In Vivo Anticancer Drug Screen. Data for tumor model L1210 Leukemia (intraperitoneal) in B6D2F1 (BDF1) mice
Conditions: endpoint: mean survival time, higher = longer survival
Summary of the method: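 Transplanted-tumor mice were given test agent; controls received vehicle only. Survival readings from the two groups were divided (treated over control).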

[1] = dose: 100.0 mg/kg/injection, schedule: Q01DX009 (ip), vehicle: Klucel (hydroxypropylcellulose) (HPC)
[2] = dose: 100.0 mg/kg/injection, schedule: Q04DX003 (ip), vehicle: Klucel (hydroxypropylcellulose) (HPC)
[3] = dose: 100.0 mg/kg/injection, schedule: Q04DX002 (ip), vehicle: Klucel (hydroxypropylcellulose) (HPC)
[4] = dose: 200.0 mg/kg/injection, schedule: Q04DX002 (ip), vehicle: Klucel (hydroxypropylcellulose) (HPC)
[5] = dose: 400.0 mg/kg/injection, schedule: Q04DX002 (ip), vehicle: Klucel (hydroxypropylcellulose) (HPC)
[6] = dose: 200.0 mg/kg/injection, schedule: Q01DX009 (ip), vehicle: Klucel (hydroxypropylcellulose) (HPC)
[7] = dose: 400.0 mg/kg/injection, schedule: Q01DX009 (ip), vehicle: Klucel (hydroxypropylcellulose) (HPC)
[8] = dose: 200.0 mg/kg/injection, schedule: Q04DX003 (ip), vehicle: Klucel (hydroxypropylcellulose) (HPC)
[9] = dose: 400.0 mg/kg/injection, schedule: Q04DX003 (ip), vehicle: Klucel (hydroxypropylcellulose) (HPC)
[10] = dose: 100.0 mg/kg/injection, schedule: Q01DX001 (ip), vehicle: Klucel (hydroxypropylcellulose) (HPC)
[11] = dose: 200.0 mg/kg/injection, schedule: Q01DX001 (ip), vehicle: Klucel (hydroxypropylcellulose) (HPC)
[12] = dose: 400.0 mg/kg/injection, schedule: Q01DX001 (ip), vehicle: Klucel (hydroxypropylcellulose) (HPC)

Structure (SMILES): CCc1cnccc1C
- T/C (dose: 20.0 mg/kg/injection, schedule: Q04DX003 (ip), vehicle: Klucel (hydroxypropylcellulose) (HPC)): 108 % of control
- T/C (dose: 25.0 mg/kg/injection, schedule: Q01DX009 (ip), vehicle: Klucel (hydroxypropylcellulose) (HPC)): 102 % of control
- T/C (dose: 40.0 mg/kg/injection, schedule: Q04DX003 (ip), vehicle: Klucel (hydroxypropylcellulose) (HPC)): 102 % of control
- T/C (dose: 50.0 mg/kg/injection, schedule: Q01DX009 (ip), vehicle: Klucel (hydroxypropylcellulose) (HPC)): 107 % of control
- T/C (dose: 80.0 mg/kg/injection, schedule: Q04DX003 (ip), vehicle: Klucel (hydroxypropylcellulose) (HPC)): 108 % of control
- T/C [1]: 111 % of control
- T/C [2]: 104 % of control

Structure (SMILES): FC(F)(F)c1cccc(N2N=NC3CC/C(=C\c4ccccc4)C32N2CCOCC2)c1 (stereo unspecified)
- T/C [3]: 97 % of control
- T/C [4]: 90 % of control
- T/C [5]: 93 % of control

Structure (SMILES): O=C(O)c1nc(SCc2ccccc2)n(Cc2ccccc2)c1C(=O)O
- T/C (dose: 100.0 mg/kg/injection, schedule: Q04DX002 (ip), vehicle: carboxymethylcellulose (CMC)): 97 % of control and 89 % of control
- T/C (dose: 100.0 mg/kg/injection, schedule: Q04DX003 (ip), vehicle: carboxymethylcellulose (CMC)): 94 % of control and 97 % of control
- T/C (dose: 200.0 mg/kg/injection, schedule: Q04DX002 (ip), vehicle: carboxymethylcellulose (CMC)): 94 % of control and 115 % of control
- T/C (dose: 200.0 mg/kg/injection, schedule: Q04DX003 (ip), vehicle: carboxymethylcellulose (CMC)): 97 % of control and 98 % of control
- T/C (dose: 400.0 mg/kg/injection, schedule: Q04DX002 (ip), vehicle: carboxymethylcellulose (CMC)): 97 % of control and 87 % of control
- T/C (dose: 400.0 mg/kg/injection, schedule: Q04DX003 (ip), vehicle: carboxymethylcellulose (CMC)): 96 % of control

Structure (SMILES): O=C1CC(c2ccccc2)=CN1c1ccc(Cl)cc1
- T/C [3]: 89 % of control
- T/C [4]: 104 % of control
- T/C [5]: 112 % of control

Structure (SMILES): Cc1cc(S(=O)(=O)c2ccccc2)c(C)s1
- T/C (dose: 50.0 mg/kg/injection, schedule: Q01DX009 (ip), vehicle: saline): 91 % of control
- T/C (dose: 50.0 mg/kg/injection, schedule: Q04DX003 (ip), vehicle: acetone): 96 % of control
- T/C (dose: 100.0 mg/kg/injection, schedule: Q01DX001 (ip), vehicle: saline): 98 % of control
- T/C (dose: 100.0 mg/kg/injection, schedule: Q01DX009 (ip), vehicle: saline): 89 % of control
- T/C (dose: 100.0 mg/kg/injection, schedule: Q04DX003 (ip), vehicle: acetone): 96 % of control
- T/C (dose: 200.0 mg/kg/injection, schedule: Q01DX001 (ip), vehicle: saline): 101 % of control
- T/C (dose: 200.0 mg/kg/injection, schedule: Q01DX009 (ip), vehicle: saline): 94 % of control
- T/C (dose: 200.0 mg/kg/injection, schedule: Q04DX003 (ip), vehicle: acetone): 94 % of control

Structure (SMILES): O=C1C=C(Nc2ccc(S(=O)(=O)N(CCCl)CCCl)cc2)c2ccccc2C1=O
- T/C [1]: 97 % of control
- T/C [6]: 100 % of control
- T/C [7]: 102 % of control

Structure (SMILES): O=C1C(NC(=O)C(Cl)Cl)=C(N2CC2)C(=O)c2ccccc21
- T/C [2]: 98 % of control
- T/C [8]: 102 % of control
- T/C [9]: 98 % of control

Structure (SMILES): O=C(OCC1OC(n2nc3ccnc(Cl)c3n2)C(OC(=O)c2ccccc2)C1OC(=O)c1ccccc1)c1ccccc1 (stereo unspecified)
- T/C (dose: 50.0 mg/kg/injection, schedule: Q01DX005 (ip), vehicle: saline): 105 % of control
- T/C (dose: 100.0 mg/kg/injection, schedule: Q01DX005 (ip), vehicle: saline): 102 % of control
- T/C (dose: 200.0 mg/kg/injection, schedule: Q01DX005 (ip), vehicle: saline): 110 % of control

Structure (SMILES): OCC1CC=CCC1 (stereo unspecified)
- T/C (dose: 100.0 mg/kg/injection, schedule: Q01DX009 (ip), vehicle: saline with Tween-80): 105 % of control
- T/C (dose: 200.0 mg/kg/injection, schedule: Q01DX009 (ip), vehicle: saline with Tween-80): 106 % of control
- T/C (dose: 400.0 mg/kg/injection, schedule: Q01DX009 (ip), vehicle: saline with Tween-80): 117 % of control

Structure (SMILES): CCOC(=O)Nc1cc(NCC(O)CN(C)c2ccc(OC)cc2)c([N+](=O)[O-])c(N)n1 (stereo unspecified)
- T/C (dose: 100.0 mg/kg/injection, schedule: Q01DX001 (ip), vehicle: saline with Tween-80): 95 % of control
- T/C (dose: 200.0 mg/kg/injection, schedule: Q01DX001 (ip), vehicle: saline with Tween-80): 93 % of control
- T/C (dose: 400.0 mg/kg/injection, schedule: Q01DX001 (ip), vehicle: saline with Tween-80): 88 % of control

Structure (SMILES): COc1ccc(-c2cc(C(=O)O)c3cc4ccccc4cc3n2)cc1Br
- T/C [1]: 107 % of control
- T/C [6]: 93 % of control
- T/C [7]: 105 % of control

Structure (SMILES): c1ccc(CC2(Cc3ccccc3)SCCS2)cc1
- T/C [2]: 102 % of control
- T/C [8]: 91 % of control
- T/C [9]: 89 % of control

Structure (SMILES): C[N+](C)(CC(=O)Nc1cccc(C(F)(F)F)c1)CC(=O)Nc1cccc(C(F)(F)F)c1
- T/C (dose: 12.5 mg/kg/injection, schedule: Q01DX009 (ip), vehicle: saline with Tween-80): 88 % of control
- T/C (dose: 25.0 mg/kg/injection, schedule: Q01DX009 (ip), vehicle: saline with Tween-80): 94 % of control
- T/C (dose: 50.0 mg/kg/injection, schedule: Q01DX009 (ip), vehicle: saline with Tween-80): 113 % of control

Structure (SMILES): NC(=O)Cc1ccc2c(c1)[nH]c1ccccc12
- T/C [10]: 96 % of control
- T/C [2]: 102 % of control
- T/C [11]: 94 % of control
- T/C [8]: 105 % of control
- T/C [12]: 100 % of control
- T/C [9]: 103 % of control

Structure (SMILES): CCOC(=O)C[n+]1ccccc1Br
- T/C (dose: 50.0 mg/kg/injection, schedule: Q01DX015 (ip), vehicle: water): 90 % of control
- T/C (dose: 100.0 mg/kg/injection, schedule: Q01DX015 (ip), vehicle: water): 100 % of control

Structure (SMILES): CSc1ccc(NC(=O)N(CCCl)N=O)cc1
- T/C (dose: 0.7 mg/kg/injection, schedule: Q01DX001 (ip), vehicle: carboxymethylcellulose (CMC)): 109 % of control
- T/C (dose: 1.5 mg/kg/injection, schedule: Q01DX001 (ip), vehicle: carboxymethylcellulose (CMC)): 112 % of control
- T/C (dose: 2.0 mg/kg/injection, schedule: Q01DX009 (ip), vehicle: other): 171 % of control
- T/C (dose: 2.6 mg/kg/injection, schedule: Q01DX009 (ip), vehicle: carboxymethylcellulose (CMC)): 113 % of control
- T/C (dose: 4.0 mg/kg/injection, schedule: Q01DX009 (ip), vehicle: carboxymethylcellulose (CMC)): 119 % of control
- T/C (dose: 4.0 mg/kg/injection, schedule: Q01DX009 (ip), vehicle: other): 180 % of control
- T/C (dose: 8.0 mg/kg/injection, schedule: Q01DX001 (ip), vehicle: other): 208 % of control
- T/C (dose: 8.0 mg/kg/injection, schedule: Q01DX009 (ip), vehicle: other): 170 % of control
- T/C (dose: 8.3 mg/kg/injection, schedule: Q01DX001 (ip), vehicle: carboxymethylcellulose (CMC)): 175 % of control
- T/C (dose: 9.0 mg/kg/injection, schedule: Q01DX009 (ip), vehicle: carboxymethylcellulose (CMC)): 156 % of control
- T/C (dose: 12.0 mg/kg/injection, schedule: Q01DX001 (ip), vehicle: other): 194 % of control
- T/C (dose: 12.5 mg/kg/injection, schedule: Q01DX001 (ip), vehicle: carboxymethylcellulose (CMC)): 187 % of control
- T/C (dose: 18.0 mg/kg/injection, schedule: Q01DX001 (ip), vehicle: other): 101 % of control
- T/C (dose: 18.7 mg/kg/injection, schedule: Q01DX001 (ip), vehicle: carboxymethylcellulose (CMC)): 211 % of control
- T/C (dose: 25.0 mg/kg/injection, schedule: Q01DX001 (ip), vehicle: carboxymethylcellulose (CMC)): 94 % of control

Structure (SMILES): Cc1cc(C)c(NC(=O)c2ccc(Cl)cc2Cl)c(C)c1
- T/C [3]: 95 % of control
- T/C [4]: 106 % of control
- T/C [5]: 95 % of control

Structure (SMILES): N#CC1CC=CCC1 (stereo unspecified)
- T/C (dose: 6.25 mg/kg/injection, schedule: Q01DX009 (ip), vehicle: saline): 113 % of control
- T/C (dose: 6.25 mg/kg/injection, schedule: Q04DX003 (ip), vehicle: saline): 101 % of control
- T/C (dose: 12.5 mg/kg/injection, schedule: Q01DX009 (ip), vehicle: saline): 121 % of control
- T/C (dose: 12.5 mg/kg/injection, schedule: Q04DX003 (ip), vehicle: saline): 90 % of control
- T/C (dose: 25.0 mg/kg/injection, schedule: Q01DX009 (ip), vehicle: saline): 103 % of control
- T/C (dose: 25.0 mg/kg/injection, schedule: Q04DX003 (ip), vehicle: saline): 113 % of control

Structure (SMILES): O=C(NC(=O)C(Cl)Cl)OC1c2cc(Cl)ccc2-c2c(Cl)cc(Cl)cc21 (stereo unspecified)
- T/C [10]: 90 % of control
- T/C [1]: 95 % of control
- T/C [2]: 91 % of control
- T/C [11]: 98 % of control
- T/C [6]: 89 % of control
- T/C [8]: 91 % of control
- T/C [12]: 88 % of control
- T/C [9]: 88 % of control
